Assay results reported in paper PMC5331435, “Metabolism of Zearalenone and Its Major Modified Forms in Pigs” (Toxins, 2017).
“Also recorded” adds a separate entry of the source.

Tests used:
[1] = Excretion and biological recovery of ZEN and its metabolites in urine and feces of piglets after a single oral bolus (HPLC-MS/MS); format: in vivo, pigs; settings: for Hydrolysis in the gastrointestinal tract of pigs: oral application, conclusion from excreta analysis
Procedure: Four castrated male weaning piglets (sow: Landrace × Large White, boar: Pietrain; 33–35 days old, 7.9 ± 0.6 kg) were obtained from a local producer in Lower Austria. Animals were housed separately in metabolic cages in total for 22 days and were allowed to acclimatize for five days before the start of the experiment. They had free access to water and feed was provided twice per day (semi ad libitum). The diet was analyzed for its concentration of ZEN and naturally occurring metabolites thereof.
(§1) Using a repeated measures design, the piglets (n = 4) received water (negative control), ZEN (10 µg/kg b.w.; positive control) and the equimolar dose of ZEN-14-S (12.5 µg/kg b.w.), ZEN-16-Glc (15.1 µg/kg b.w.) and ZEN-14-Glc (15.1 µg/kg b.w.) per gavage (orogastric application) on day 1, 3, 7, 11, and 15 of the experiment, respectively. From the stock solutions containing between 991 (ZEN-14-S) and 1274 (ZEN-14-Glc) µg/mL of the analytes the adequate volumes for the animal experiment were removed and diluted with water for the oral application to obtain 5 µg/mL ZEN and the equimolar concentration of the other analytes in the aqueous stock solutions. Using polyvinyl chloride catheters (diameter 4.7 mm, Ch 14, mpö pfm GesmbH (Klagenfurt, Austria), length was adapted to the size of the esophagus of the piglets), volumes between 16 and 30 mL of the aqueous stock solutions were orally administered to the piglets, considering the piglets’ weight. After the toxin application, 10 mL of water was used to flush the catheter. Urine and feces of each of the piglets were quantitatively collected for the periods 0–24 h and 24–48 h after dosing. Urine was measured volumetrically on site and all excreta samples were stored at −20 °C until lyophilization (feces) or sample preparation and analysis (urine). The general condition of the animals was observed daily during the experiment.
Urine samples were diluted 1:5000 with water and the creatinine content was determined by LC-MS/MS as described earlier. For determination of ZEN, its plant and fungal metabolites and their metabolites in pigs, urine samples were diluted to 0.2 mM creatinine with water and centrifuged prior to HPLC-MS/MS analysis.
Five-hundred milligram aliquots of freeze-dried and thoroughly homogenized feces samples were extracted three times (90/30/30 min) with 5 mL each of ACN/water (50/50, v/v) on a GFL rotary shaker (type 3017, Burgwedel, Germany). After each extraction step, samples were clarified by centrifugation (10 min, 12,500 rpm, GS-15 centrifuge, Beckman Coulter, Indianapolis, IN, USA). Aliquots of the pooled supernatants were centrifuged and measured by HPLC-MS/MS.
Analysis of the feces and urine samples was performed on a 1290 Infinity series UHPLC system (Agilent Technologies, Waldbronn, Germany) coupled to a 6500 QTrap mass spectrometer equipped with an IonDrive TurboV source (Sciex, Foster City, CA, USA). Analyst software version 1.6.2 (Sciex, Foster City, CA, USA) was used for instrument control and data analysis. Chromatographic separation was carried out on a Kinetex Biphenyl column (150 mm × 3 mm, 2.6 µm, Phenomenex, Aschaffenburg, Germany). Eluent A consisted of water/acetic acid (99.9/0.1, v/v), eluent B was composed of ACN/acetic acid (99.9/0.1, v/v). […] At 14 min, 100% was reached which was held until 16.9 min. Afterwards, the column was re-equilibrated at 15% B for 3 min, resulting in a total run time of 20 min. The flow rate was 400 µL/min, the column temperature was 30 °C and the injection volume was 2 µL. Mass spectrometric detection was performed in negative electrospray ionization mode and selected reaction monitoring (SRM) was applied as scan type. The source settings were as follows: source temperature 400 °C, ion spray voltage −4500 V, curtain gas 35 psi (ca. 240 kPa), ion source gas 1 at 55 psi (ca. 379 kPa) and gas 2 at 65 psi (ca. 448 kPa), collision gas (nitrogen) high. […]

piglets = assay: Observation of clinical symptoms in treated piglets; format: in vivo, pigs; settings: single orogastric bolus, 10 µg/kg b.w. ZEN or equimolar dose, four piglets
Procedure: For animal welfare considerations, amounts of administered toxins were chosen on the basis of no-observed-effect-levels of 10 µg/kg body weight per day for oral application in pigs. In short, four piglets received a single orogastric bolus of ZEN (10 µg/kg b.w.) and of its plant or fungal metabolites (at equimolar dose), respectively, using a repeated measures design.
as §1, with “Using polyvinyl chloride catheters (diameter 4.7 mm, Ch 14, mpö pfm GesmbH (Klagenfurt, Austria), length was adapted to the size of the esophagus of the piglets), volumes between 16 and 30 mL of the aqueous stock solutions were orally administered to the piglets, considering the piglets’ weight. After the toxin application, 10 mL of water was used to flush the catheter.” left out, “The general condition of the animals was observed daily during the experiment.” left out

[2] = set-up: method as in earlier work; settings: humans, based on studies in pigs; cited from earlier work
[3] = difference of hydrolyzed and untreated urine; cited from earlier work
[4] = pigs, cited from earlier work
[5] = system: human intestinal bacteria; set-up: method as in PMID 23347206; settings: human in vitro model; cited from earlier work
[6] = system: human breast cancer cells (MCF7); set-up: method as in PMID 26792714; settings: MCF7 including fetal bovine serum; cited from earlier work
[7] = set-up: method as in PMID 27856298; settings: in vitro; cited from earlier work
[8] = set-up: method as in PMID 2143610; settings: contaminated feed, one pig; cited from earlier work
human estrogen receptor = system: human estrogen receptor; set-up: method as in PMID 16751557; settings: cited from earlier work
human Caco-2/TC7 cells = settings: after six and 24 h; cited from earlier work
human gut microbiota = settings: cited from earlier work; for Share hydrolyzed after incubation with human gut microbiota: four hours; for Dose converted to unidentified metabolites / not recovered as identified metabolites / Dose detected as the aglycone (ZEN, α-ZEL or β-ZEL): incubation with human gut microbiota
[9] = oral dose, cited from earlier work; for Recovery in rats: rats (ZEN-14-Glc as ZEN equivalents)
uterus weight = system: uterus weight; set-up: method as in PMID 1827972; settings: intragastric, rats n = 6 per treatment; cited from earlier work
[10] = system: intestinal bacteria from human fecal slurry; set-up: method as in PMID 24386883; settings: cited from earlier work
[11] = after oral administration, piglets
[12] = urine samples after oral administration, piglets

For `C[C@H]1CCCC(=O)CCC/C=C/c2cc(O)cc(O)c2C(=O)O1` [ZEN, zearalenone], the “Detection of β-ZEL in urine and feces” value [1, 11] is given as “neither be detected in urine nor in feces samples”, the “Clinical symptoms during and after treatment” value (piglets) is given as “no clinical symptoms were observed” and the “Tolerable daily intake (TDI)” value [2] is given as 0.25 µg/kg b.w. The “Glucuronidation in pig urine” value [3] was 27%, the Glucuronidation in urine [3] was 23% and the “Mean percentage of ingested ZEN excreted into urine” value ([4]; 24 h after application) was 28.4%. For the same compound, the “Biological recovery of intravenously administered ZEN” value ([4]; intravenous) was 77%, the “Part eliminated via urine within 12 h” value ([4]; intravenous) was 44% and the Terminal elimination half-life ([4]; intravenously administered) was 2.63 h. The “Biological recovery of orally administered radiolabeled ZEN” value ([4]; oral, after 48 h) was 67% and the “Radioactive ZEN excreted in bile that was reabsorbed into the systemic blood system” value [4] was “about 85%”.

For `C[C@H]1CCCC(=O)CCC/C=C/c2cc(O[C@@H]3O[C@H](CO)[C@@H](O)[C@H](O)[C@H]3O)cc(O)c2C(=O)O1` [ZEN-14-Glc, zearalenone-14-O-β-glucoside], the “Detection of the intact administered conjugate in urine and feces” value [1, 11] was “none of the glucosides could be detected in urine or feces”, the “Detection of the intact administered conjugate in urine and feces” value ([1]; after oral administration, piglets, listed as ZEN-14-O-β-glucoside) was “neither detected in urine nor in feces” and the “Hydrolysis in the gastrointestinal tract of pigs” value (from here on “Hydrolysis … of pigs”) [1] was “readily hydrolyzed to ZEN”. The “Hydrolysis … of pigs” value ([1]; listed as ZEN-14-O-β-glucoside) was “completely hydrolyzed”, the “Hydrolysis upon incubation with human intestinal bacteria” value [5] was “completely hydrolyzed within 30 min” and the “Conversion by MCF7 cells” value [6] was “convert ZEN-14-Glc to ZEN, α-ZEL and β-ZEL”. The “Hydrolysis in bovine serum, plasma and whole blood” value [7] was “in vitro hydrolysis of ZEN-14-Glc and release of ZEN”, the “Metabolization during digestion in the pig” value [8] was “completely metabolized to ZEN and α-ZEL” and the “Interaction with the human estrogen receptor” value (human estrogen receptor) was “interrupted”. For the same compound, the “Amount detected in the basolateral compartment” value (human Caco-2/TC7 cells) was “only traces”, the “Share hydrolyzed after incubation with human gut microbiota” value (from here on “Share hydrolyzed after incubation”) (human gut microbiota) was “over 97%” and the “Dose converted to unidentified metabolites / not recovered as identified metabolites” value (human gut microbiota) was 50%. The “Dose detected as the aglycone (ZEN, α-ZEL or β-ZEL)” value (from here on “Dose detected as the aglycone”) (human gut microbiota) was 40%, the Recovery in rats [9] was 71% and the “Hydrolysis in the GI tract of rats” value ([9]; rats) was “partly hydrolyzed in the upper part of the GI tract”.

With `C[C@H]1CCCC(=O)CCC/C=C/c2cc(OS(=O)(=O)O)cc(O)c2C(=O)O1` [ZEN-14-S, zearalenone-14-sulfate] the “Detection of the intact administered conjugate in urine and feces” value [1, 11] was “neither detected in urine nor in feces samples”, the “Detection of the intact administered conjugate in urine and feces” value ([1]; after oral administration, piglets, listed as ZEN-14-sulfate) was “neither detected in urine nor in feces” and the “ZEN metabolites in feces” value ([1]; after oral application, piglets, listed as ZEN-14-sulfate) was “no ZEN metabolites were detected”. The “Hydrolysis … of pigs” value [1] was “rapidly hydrolyzed; also recorded: readily hydrolyzed to ZEN”, the “Hydrolysis … of pigs” value ([1]; listed as ZEN-14-sulfate) was “completely hydrolyzed” and the “Concentration of ZEN in urine” value ([1]; second sampling period (24–48 h), piglets) was “Only traces”. For the same compound, the “Concentration of α-ZEL in urine” value [1, 12] was “traces”, the “Estrogenic activity (effect on uterus weight)” value (uterus weight) was “partially retained the estrogenic activities of ZEN” and the “Hydrolysis upon incubation with human intestinal bacteria” value [5] was “completely hydrolyzed within 30 min”.

With `C[C@H]1CCCC(=O)CCC/C=C/c2cc(O)cc(O[C@@H]3O[C@H](CO)[C@@H](O)[C@H](O)[C@H]3O)c2C(=O)O1` [ZEN-16-Glc, zearalenone-16-O-β-glucoside] the “Detection of the intact administered conjugate in urine and feces” value [1, 11] was “none of the glucosides could be detected in urine or feces”, the “Detection of the intact administered conjugate in urine and feces” value ([1]; after oral administration, piglets, listed as ZEN-16-O-β-glucoside) was “neither detected in urine nor in feces” and the “Hydrolysis … of pigs” value [1] was “readily hydrolyzed to ZEN”. For the same compound, the “Hydrolysis … of pigs” value ([1]; listed as ZEN-16-O-β-glucoside) was “completely hydrolyzed”, the “Concentration of ZEN-14-GlcA in urine” value [1, 12] was “traces” and the “Residue in the fecal slurry” value ([10]; after two hours) was “no residue”. For the same compound, the “Conversion by intestinal bacteria from human fecal slurry” value ([10]; within 30 min) was “nearly completely converted to ZEN within 30 min”.

In the case of `[13CH3][13C@H]1[13CH2][13CH2][13CH2][13C](=O)[13CH2][13CH2][13CH2]/[13CH]=[13CH]/[13c]2[13cH][13c](O)[13cH][13c](O)[13c]2[13C](=O)O1` [^13C-labeled ZEN], the Recovery in rats [9] is given as 74%.

In the case of `C[C@H]1CCC[C@H](O)CCC/C=C/c2cc(O)cc(O)c2C(=O)O1` [α-ZEL, α-zearalenol], the “Glucuronidation in pig urine” value [3] is given as 88% and the Glucuronidation in urine [3] is given as 75%.

For `CC1CCCC(O)CCCC=Cc2cc(OC3OC(CO)C(O)C(O)C3O)cc(O)c2C(=O)O1` (stereo not drawn) [α-ZEL-14-Glc], the “Amount detected in the basolateral compartment” value (human Caco-2/TC7 cells) is given as “only traces”, the “Share hydrolyzed after incubation” value (human gut microbiota) is given as “over 97%” and the “Dose converted to unidentified metabolites / not recovered as identified metabolites” value (human gut microbiota) is given as 40%. For the same compound, the “Dose detected as the aglycone” value (human gut microbiota) was 60%.

In the case of `C[C@H]1CCC[C@@H](O)CCC/C=C/c2cc(O)cc(O)c2C(=O)O1` [β-ZEL, β-zearalenol], the “Glucuronidation in pig urine” value [3] is given as 94% and the Glucuronidation in urine [3] is given as 56%.

For `C[C@H]1CCC[C@@H](O)CCC/C=C/c2cc(O[C@@H]3O[C@H](CO)[C@@H](O)[C@H](O)[C@H]3O)cc(O)c2C(=O)O1` [β-ZEL-14-Glc], the “Share hydrolyzed after incubation” value (human gut microbiota) is given as “over 97%”, the “Dose converted to unidentified metabolites / not recovered as identified metabolites” value (human gut microbiota) is given as 70% and the “Dose detected as the aglycone” value (human gut microbiota) is given as 30%.
